Results taken from PubChem BioAssay AID248 (DTP/NCI, 2004).
Several values for one entry are separate records, joined by “and”; a condition that tells them apart may be missing. Equal entries are not always repeated. Toxic doses and inconclusive results are not listed. Rule as the data show it: active = T/C of 150% or more; inactive = T/C below 125%.

Tested on: L1210 leukemia ip in BDF1 mice, survival T/C
Assay: NCI In Vivo Anticancer Drug Screen. Data for tumor model L1210 Leukemia (intraperitoneal) in B6D2F1 (BDF1) mice
Details: endpoint: mean survival time, higher = longer survival
In short: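 Transplantable tumor model; survival measured in treated vs vehicle control mice. Value = treated/control.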

[1] = dose: 100.0 mg/kg/injection, schedule: Q04DX003 (ip), vehicle: Klucel (hydroxypropylcellulose) (HPC)
[2] = dose: 200.0 mg/kg/injection, schedule: Q04DX003 (ip), vehicle: Klucel (hydroxypropylcellulose) (HPC)
[3] = dose: 100.0 mg/kg/injection, schedule: Q01DX009 (ip), vehicle: saline
[4] = dose: 100.0 mg/kg/injection, schedule: Q04DX003 (ip), vehicle: saline
[5] = dose: 200.0 mg/kg/injection, schedule: Q01DX009 (ip), vehicle: saline
[6] = dose: 200.0 mg/kg/injection, schedule: Q04DX003 (ip), vehicle: saline
[7] = dose: 400.0 mg/kg/injection, schedule: Q04DX003 (ip), vehicle: saline
[8] = dose: 100.0 mg/kg/injection, schedule: Q01DX001 (ip), vehicle: saline
[9] = dose: 200.0 mg/kg/injection, schedule: Q01DX001 (ip), vehicle: saline
[10] = dose: 400.0 mg/kg/injection, schedule: Q01DX001 (ip), vehicle: saline

Measured: T/C

O=C(CCCc1ccc(N(CCCl)CCCl)cc1)NCc1ccc(N(CCCl)CCCl)cc1
inactive: dose: 4.0 mg/kg/injection, schedule: Q12HX018 (sc), vehicle: other 103 % of control | dose: 6.0 mg/kg/injection, schedule: Q12HX018 (sc), vehicle: other 103 % of control | dose: 8.0 mg/kg/injection, schedule: Q12HX018 (sc), vehicle: other 100 % of control

c1ccc(/C2=C(\c3ccccc3)CSSSSC2)cc1
inactive: dose: 50.0 mg/kg/injection, schedule: Q04DX003 (ip), vehicle: Klucel (hydroxypropylcellulose) (HPC) 105 % of control | [1] 98 % of control | [2] 98 % of control

CN=C(NN)Nc1ccccc1
inactive: dose: 87.5 mg/kg/injection, schedule: Q04DX003 (ip), vehicle: saline 96 % of control | dose: 175.0 mg/kg/injection, schedule: Q04DX003 (ip), vehicle: saline 104 % of control | dose: 350.0 mg/kg/injection, schedule: Q04DX003 (ip), vehicle: saline 93 % of control

Cc1cc2cc3c(=O)[nH]c(=O)nc-3n(CC(O)C(O)C(O)COP(=O)(O)O)c2cc1C (stereo not drawn)
inactive: dose: 25.0 mg/kg/injection, schedule: Q01DX009 (ip), vehicle: saline 96 % of control | dose: 50.0 mg/kg/injection, schedule: Q01DX009 (ip), vehicle: saline 100 % of control | [3] 94 % of control and 89 % of control | [4] 110 % of control | [5] 86 % of control | [6] 100 % of control | [7] 98 % of control

COc1ccc2c(c1)CCc1cnoc1-2
inactive: [1] 93 % of control | [2] 95 % of control | dose: 400.0 mg/kg/injection, schedule: Q04DX003 (ip), vehicle: Klucel (hydroxypropylcellulose) (HPC) 95 % of control

CCOC(=O)C(I)CC (stereo not drawn)
inactive: dose: 25.0 mg/kg/injection, schedule: Q01DX009 (ip), vehicle: water 107 % of control | dose: 50.0 mg/kg/injection, schedule: Q01DX009 (ip), vehicle: water 93 % of control | dose: 100.0 mg/kg/injection, schedule: Q01DX009 (ip), vehicle: water 87 % of control

CC1(C)OC(C(O)CO)C(C2COC(=S)O2)O1 (stereo not drawn)
inactive: dose: 100.0 mg/kg/injection, schedule: Q04DX002 (ip), vehicle: saline 107 % of control | dose: 200.0 mg/kg/injection, schedule: Q04DX002 (ip), vehicle: saline 104 % of control | dose: 400.0 mg/kg/injection, schedule: Q04DX002 (ip), vehicle: saline 100 % of control

CC(N=c1nc(N)ccn1C1OC(CO)C(O)C1O)C(=O)O (stereo not drawn)
inactive: dose: 200.0 mg/kg/injection, schedule: Q01DX005 (ip), vehicle: saline 120 % of control

O=[N+]([O-])c1ccc(Cn2cnc3c(Cl)ncnc32)cc1
inactive: dose: 100.0 mg/kg/injection, schedule: Q01DX001 (ip), vehicle: other 90 % of control

[S-]c1n[n+](-c2ccccc2)cs1
inactive: [8] 97 % of control | [9] 95 % of control | [10] 92 % of control

O=c1cn[nH]c(=O)[nH]1
inactive: dose: 62.5 mg/kg/injection, schedule: Q01DX009 (ip), vehicle: saline 105 % of control and 107 % of control | dose: 62.5 mg/kg/injection, schedule: Q01DX010 (ip), vehicle: saline 97 % of control and 102 % of control | dose: 110.1 mg/kg/injection, schedule: Q01DX Z (ip), vehicle: carboxymethylcellulose (CMC) 107 % of control | dose: 125.0 mg/kg/injection, schedule: Q01DX009 (ip), vehicle: saline 103 % of control and 118 % of control | dose: 125.0 mg/kg/injection, schedule: Q01DX010 (ip), vehicle: saline 94 % of control and 101 % of control | dose: 132.0 mg/kg/injection, schedule: Q01DX Z (ip), vehicle: methylcellulose (MC) 97 % of control | dose: 200.0 mg/kg/injection, schedule: Q01DX Z (ip), vehicle: methylcellulose (MC) 111 % of control | dose: 220.2 mg/kg/injection, schedule: Q01DX Z (ip), vehicle: carboxymethylcellulose (CMC) 121 % of control | dose: 250.0 mg/kg/injection, schedule: Q01DX009 (ip), vehicle: saline 100 % of control and 107 % of control | dose: 250.0 mg/kg/injection, schedule: Q01DX010 (ip), vehicle: saline 108 % of control and 111 % of control | dose: 300.0 mg/kg/injection, schedule: Q01DX Z (ip), vehicle: methylcellulose (MC) 111 % of control | dose: 440.4 mg/kg/injection, schedule: Q01DX Z (ip), vehicle: carboxymethylcellulose (CMC) 113 % of control | dose: 450.0 mg/kg/injection, schedule: Q01DX Z (ip), vehicle: methylcellulose (MC) 105 % of control | dose: 500.0 mg/kg/injection, schedule: Q01DX009 (ip), vehicle: saline 112 % of control and 120 % of control | dose: 500.0 mg/kg/injection, schedule: Q01DX010 (ip), vehicle: saline 117 % of control and 118 % of control | dose: 675.0 mg/kg/injection, schedule: Q01DX Z (ip), vehicle: methylcellulose (MC) 124 % of control | dose: 880.8 mg/kg/injection, schedule: Q01DX Z (ip), vehicle: carboxymethylcellulose (CMC) 121 % of control | dose: 1011.0 mg/kg/injection, schedule: Q01DX Z (ip), vehicle: methylcellulose (MC) 109 % of control

CC(=O)OC1CCC2(C)C(=CCC3C2CCC2(C)C3CC3C(c4ccccc4)=NN(c4ccccc4)C32C(C)=O)C1 (stereo not drawn)
inactive: dose: 100.0 mg/kg/injection, schedule: Q04DX002 (ip), vehicle: Klucel (hydroxypropylcellulose) (HPC) 92 % of control | dose: 200.0 mg/kg/injection, schedule: Q04DX002 (ip), vehicle: Klucel (hydroxypropylcellulose) (HPC) 103 % of control | dose: 400.0 mg/kg/injection, schedule: Q04DX002 (ip), vehicle: Klucel (hydroxypropylcellulose) (HPC) 92 % of control

O=C1C(=O)c2cc(Br)cc([N+](=O)[O-])c2-c2ccc(Br)cc21
inactive: dose: 50.0 mg/kg/injection, schedule: Q01DX001 (ip), vehicle: carboxymethylcellulose (CMC) 95 % of control | dose: 100.0 mg/kg/injection, schedule: Q01DX001 (ip), vehicle: carboxymethylcellulose (CMC) 106 % of control | dose: 200.0 mg/kg/injection, schedule: Q01DX001 (ip), vehicle: carboxymethylcellulose (CMC) 101 % of control | dose: 400.0 mg/kg/injection, schedule: Q01DX001 (ip), vehicle: carboxymethylcellulose (CMC) 97 % of control

CCCCCC(CN(C)C)C(=O)/C=C/c1ccccc1 (stereo not drawn)
inactive: dose: 50.0 mg/kg/injection, schedule: Q01DX009 (sc), vehicle: other 95 % of control | dose: 100.0 mg/kg/injection, schedule: Q01DX001 (sc), vehicle: steriod suspending solution 93 % of control | dose: 100.0 mg/kg/injection, schedule: Q01DX009 (sc), vehicle: other 102 % of control | dose: 100.0 mg/kg/injection, schedule: Q04DX003 (sc), vehicle: other 101 % of control | dose: 200.0 mg/kg/injection, schedule: Q01DX001 (sc), vehicle: steriod suspending solution 93 % of control | dose: 200.0 mg/kg/injection, schedule: Q04DX003 (sc), vehicle: other 90 % of control | dose: 400.0 mg/kg/injection, schedule: Q01DX001 (sc), vehicle: steriod suspending solution 100 % of control

ClCC[n+]1csc2ccccc21
inactive: dose: 10.0 mg/kg/injection, schedule: Q01DX Z (ip), vehicle: saline 91 % of control | dose: 30.0 mg/kg/injection, schedule: Q01DX Z (ip), vehicle: saline 94 % of control | dose: 100.0 mg/kg/injection, schedule: Q01DX Z (ip), vehicle: saline 96 % of control | dose: 300.0 mg/kg/injection, schedule: Q01DX Z (ip), vehicle: saline 110 % of control

CC(C)(C)c1cc(OCC2CO2)c(C(C)(C)C)cc1OCC1CO1 (stereo not drawn)
inactive: [8] 101 % of control | [9] 101 % of control | [10] 92 % of control

IC1CCCOC1[n+]1ccccc1 (stereo not drawn)
inactive: dose: 12.5 mg/kg/injection, schedule: Q01DX009 (ip), vehicle: saline with Tween-80 102 % of control | dose: 12.5 mg/kg/injection, schedule: Q04DX003 (ip), vehicle: saline with Tween-80 96 % of control | dose: 25.0 mg/kg/injection, schedule: Q01DX009 (ip), vehicle: saline with Tween-80 100 % of control | dose: 25.0 mg/kg/injection, schedule: Q04DX003 (ip), vehicle: saline with Tween-80 104 % of control | dose: 50.0 mg/kg/injection, schedule: Q01DX009 (ip), vehicle: saline with Tween-80 103 % of control | dose: 50.0 mg/kg/injection, schedule: Q04DX003 (ip), vehicle: saline with Tween-80 98 % of control

CCOC(=O)C1(C(=O)OCC)C/C=C/CC(C(=O)OCC)(C(=O)OCC)C/C=C/C1
inactive: [3] 90 % of control | [4] 98 % of control | [5] 102 % of control | [6] 95 % of control | dose: 400.0 mg/kg/injection, schedule: Q01DX009 (ip), vehicle: saline 92 % of control | [7] 90 % of control

CC1CN=C(c2ccc(NC(=O)Nc3ccc(C4=NCCN4)cc3)cc2)N1 (stereo not drawn)
inactive: dose: 1.88 mg/kg/injection, schedule: Q01DX Z (ip), vehicle: saline 112 % of control | dose: 3.75 mg/kg/injection, schedule: Q01DX Z (ip), vehicle: saline 113 % of control
